Here are results for one molecule from patent US20120207743A1 (priority 2011, published 2012).

The subject of this assay is DU-145 cells. The format is cell-based, Human.

Regarding `C=C1[C@@H](C)[C@H]2[C@H](Cc3ccccc3)NC(=O)[C@]23[C@H](OC(C)=O)/C=C/[C@@](C)(O)C(=O)[C@@H](C)C/C=C/[C@H]3[C@@H]1O` [Cytochalasin-D], the “Reduction in cell migration compared to cells treated with media alone” value was “did not migrate”; the “Relative Wound Density at 24 Hours, Mean” value came to 3.3 ± 0.2; the “Relative Wound Density at 24 Hours, Percent Relative to Media” value was determined as 4%.
